{"source": "patent US12116325B2", "about": "“Increased longevity of the nitrogen content of soil through improved liquid delivery formulations of nitrification inhibitors designed for urea and manure based fertilizers” (SOILGENIC TECHNOLOGIES, LLC, priority 2014, dated 2024)", "assay": "Degradation study of actives in DMSO at 50° C. by LC", "format": "physicochemical", "experimental": "A degradation study was performed using 2-chloro-6-(trichloromethyl)pyridine/nBPT in DMSO.\nA 2-chloro-6-(trichloromethyl)pyridine/NBPT=1/1(w/w) mixture was dissolved in DMSO. LC (liquid chromatography) was performed to analyze the content decrease versus time. All samples were sealed and protected under N2. All samples were stored 50° C.\nA C18 column was used, and measured at 255 nm. Retention time: 40 min.\nTemperature: 30° C. 15 μL injection. Peak area percentages were calculated to analyze the concentration and are shown in below Table 3.", "data": [{"smiles": "Clc1cccc(C(Cl)(Cl)Cl)n1", "note": "[2-chloro-6-(trichloromethyl)pyridine]", "values": [{"measurement": "Content remaining, LC peak area percentage", "setting": "1 week", "result": 100, "unit": "%"}, {"measurement": "Content remaining, LC peak area percentage", "setting": "2 week", "result": 99, "unit": "%"}, {"measurement": "Content remaining, LC peak area percentage", "setting": "3 week", "result": 99.4, "unit": "%"}, {"measurement": "Content remaining, LC peak area percentage", "setting": "4 week", "result": 98.3, "unit": "%"}, {"measurement": "Content remaining, LC peak area percentage", "setting": "6 week", "result": 95.3, "unit": "%"}, {"measurement": "Content remaining, LC peak area percentage", "setting": "7 week", "result": 93.2, "unit": "%"}, {"measurement": "Content remaining, LC peak area percentage", "setting": "8 week", "result": 92.3, "unit": "%"}, {"measurement": "Content remaining, LC peak area percentage", "setting": "9 week", "result": 90.8, "unit": "%"}, {"measurement": "Content remaining, LC peak area percentage", "setting": "10 week", "result": 88, "unit": "%"}, {"measurement": "Content remaining, LC peak area percentage", "setting": "11 week", "result": 86.7, "unit": "%"}, {"measurement": "Content remaining, LC peak area percentage", "setting": "12 week", "result": 86.4, "unit": "%"}, {"measurement": "Content remaining, LC peak area percentage", "setting": "13 week", "result": 85, "unit": "%"}, {"measurement": "Content remaining, LC peak area percentage", "setting": "14 week", "result": 84.33, "unit": "%"}, {"measurement": "Content remaining, LC peak area percentage", "setting": "15 week", "result": 83.56, "unit": "%"}, {"measurement": "Content remaining, LC peak area percentage", "setting": "16 week", "result": 81.45, "unit": "%"}, {"measurement": "Content remaining, LC peak area percentage", "setting": "17 week", "result": 81, "unit": "%"}, {"measurement": "Content remaining, LC peak area percentage", "setting": "18 week", "result": 80.09, "unit": "%"}]}, {"smiles": "CCCCNP(N)(N)=S", "note": "[n-butylthiophosphoric triamide]", "values": [{"measurement": "Content remaining, LC peak area percentage", "setting": "Week 1, 1/1 (w/w) mixture in DMSO, 50° C., sealed under N2", "result": 100, "unit": "%"}, {"measurement": "Content remaining, LC peak area percentage", "setting": "Week 2, DMSO, 50° C.", "result": 99.6, "unit": "%"}, {"measurement": "Content remaining, LC peak area percentage", "setting": "Week 3, DMSO, 50° C.", "result": 98, "unit": "%"}, {"measurement": "Content remaining, LC peak area percentage", "setting": "Week 4, DMSO, 50° C.", "result": 97.6, "unit": "%"}, {"measurement": "Content remaining, LC peak area percentage", "setting": "Week 6, DMSO, 50° C.", "result": 96.5, "unit": "%"}, {"measurement": "Content remaining, LC peak area percentage", "setting": "Week 7, DMSO, 50° C.", "result": 95.3, "unit": "%"}, {"measurement": "Content remaining, LC peak area percentage", "setting": "Week 8, DMSO, 50° C.", "result": 94.7, "unit": "%"}, {"measurement": "Content remaining, LC peak area percentage", "setting": "Week 9, DMSO, 50° C.", "result": 93, "unit": "%"}, {"measurement": "Content remaining, LC peak area percentage", "setting": "Week 10, DMSO, 50° C.", "result": 92.2, "unit": "%"}, {"measurement": "Content remaining, LC peak area percentage", "setting": "Week 11, DMSO, 50° C.", "result": 92.1, "unit": "%"}, {"measurement": "Content remaining, LC peak area percentage", "setting": "Week 12, DMSO, 50° C.", "result": 91.7, "unit": "%"}, {"measurement": "Content remaining, LC peak area percentage", "setting": "Week 13, DMSO, 50° C.", "result": 91, "unit": "%"}, {"measurement": "Content remaining, LC peak area percentage", "setting": "Week 14, DMSO, 50° C.", "result": 90.88, "unit": "%"}, {"measurement": "Content remaining, LC peak area percentage", "setting": "Week 15, DMSO, 50° C.", "result": 90.01, "unit": "%"}, {"measurement": "Content remaining, LC peak area percentage", "setting": "Week 16, DMSO, 50° C.", "result": 99.55, "unit": "%"}, {"measurement": "Content remaining, LC peak area percentage", "setting": "Week 17, DMSO, 50° C.", "result": 89.06, "unit": "%"}, {"measurement": "Content remaining, LC peak area percentage", "setting": "Week 18, DMSO, 50° C.", "result": 88.6, "unit": "%"}]}]}
